Data from publication PMC12606622, “Assessment of the Binding Patterns for Endocrine Disrupting Chemicals in Complex with Estrogen and Androgen Receptors by Leveraging the Asclepios Enalos KNIME Nodes” (Journal of Chemical Information and Modeling, 2025).
Where two headings read alike, the source gives them in different places.

Key:
human AR = target: T1, human AR (Homo sapiens, UniProt P10275); assay type: cell-based; conditions: for % residual agonist activity: at 30 μM, 3 nM 11-ketoDHT only = 100%
T1 sequence (P10275 640-920): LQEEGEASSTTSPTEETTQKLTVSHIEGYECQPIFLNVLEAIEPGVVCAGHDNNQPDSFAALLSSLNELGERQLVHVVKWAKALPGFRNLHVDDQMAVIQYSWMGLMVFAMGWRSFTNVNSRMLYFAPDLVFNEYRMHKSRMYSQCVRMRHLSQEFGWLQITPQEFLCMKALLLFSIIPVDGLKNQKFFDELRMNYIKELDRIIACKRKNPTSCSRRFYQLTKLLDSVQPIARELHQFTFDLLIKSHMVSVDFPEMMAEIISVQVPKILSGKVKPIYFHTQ
Experimental: (§1) HEK293 cells (ACC305, DSMZ, Braunschweig, Germany) were cultivated at 37 °C in 5% CO2 in DMEM supplemented with 10% FBS, 2 mM L-glutamine, 1 mM sodium pyruvate, 100 U/mL penicillin, and 100 μg/mL streptomycin. For exposure studies, cells were cultivated in phenol red-free DMEM, supplemented with 1% dextran-coated charcoal-treated FBS.
In the case of the N–C-terminal interaction assay of AR, the ESR1 effector plasmid was replaced by 0.02 μg each of pVP16-AR (1–503) and pM-AR (640–920). Aliquot (0.6 μL) of 1 mg/mL PEI MAX 40K solution was diluted to 25 μL with 150 mM NaCl. The diluted PEI MAX 40K was added to the diluted DNA mixture, and the mixture was incubated at room temperature for 15 min. In parallel, HEK 293 cells were adjusted to 40,000 cells in 200 μL of culture medium per well. The transfection mixture (50 μL) was added to the cell suspension, gently mixed, and pipetted into a well of a 96-well plate. The next day, the transfected cells were treated with chemicals for 24 h before cell lysis with 50 μL per well of passive lysis buffer (Promega). Firefly and Renilla luciferase activities were measured as described previously. Results were normalized for transfection efficiency by dividing firefly luciferase activity by Renilla luciferase activity, measured from the same well. Assays were performed in technical triplicate in each independent experiment. […] Concentration response curves were fitted with nonlinear regression using the formula with a variable slope (four parameters) or the formula with a standard slope (three parameters) of GraphPad Prism 10.4.1 (GraphPad Software, Boston, MA, USA), as indicated in the respective figure legends.
AR N–C-terminal interaction mammalian two-hybrid assays were run in transiently transfected HEK293 cells, which were treated afterward for 24 h with the indicated concentrations of chemicals. […] Data are presented as a mean ± SD fold change (n = 4 independent experiments) with respect to the normalized reporter gene activity of cells treated with 0.1% DMSO only. […] Data are presented as mean ± SD (n = 3 independent experiments) with respect to the normalized reporter gene activity of cells treated with 3 nM 11-ketoDHT only, which was designated as 100%. Curves were fitted with nonlinear regression using the formula with a standard slope (three parameters) of GraphPad Prism 10.4.1.

human ERα (ESR1) = target: T2, human ERα (ESR1) (Homo sapiens, UniProt P03372); assay: ERα mammalian one-hybrid reporter gene assay in transiently transfected HEK293 cells; assay type: cell-based; conditions: for E max [FC]: fold change vs 0.1% DMSO, at conc. BPA 10, BPF 10, BPS 30, ZEA 0.1 μM
T2 sequence (P03372 251-595): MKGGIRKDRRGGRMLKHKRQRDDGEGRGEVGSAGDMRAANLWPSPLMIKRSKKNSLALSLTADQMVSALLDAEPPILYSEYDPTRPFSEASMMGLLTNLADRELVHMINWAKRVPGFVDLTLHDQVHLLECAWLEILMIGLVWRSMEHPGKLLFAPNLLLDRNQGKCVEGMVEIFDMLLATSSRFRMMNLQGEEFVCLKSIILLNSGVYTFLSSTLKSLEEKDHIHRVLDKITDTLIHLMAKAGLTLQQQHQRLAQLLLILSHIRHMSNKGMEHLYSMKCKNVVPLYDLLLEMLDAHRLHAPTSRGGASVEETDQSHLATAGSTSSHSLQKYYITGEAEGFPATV
Experimental: as §1
Per well of a 96-well plate, a plasmid DNA mixture consisting of 0.26 μg of pGL4-G5, 0.04 μg of pM-ESR1 (251–495), and 0.005 μg of pGL4.75 [hRluc/CMV] was diluted with 150 mM NaCl to a final volume of 25 μL. […] Aliquot (0.6 μL) of 1 mg/mL PEI MAX 40K solution was diluted to 25 μL with 150 mM NaCl. The diluted PEI MAX 40K was added to the diluted DNA mixture, and the mixture was incubated at room temperature for 15 min. In parallel, HEK 293 cells were adjusted to 40,000 cells in 200 μL of culture medium per well. The transfection mixture (50 μL) was added to the cell suspension, gently mixed, and pipetted into a well of a 96-well plate. The next day, the transfected cells were treated with chemicals for 24 h before cell lysis with 50 μL per well of passive lysis buffer (Promega). Firefly and Renilla luciferase activities were measured as described previously. Results were normalized for transfection efficiency by dividing firefly luciferase activity by Renilla luciferase activity, measured from the same well. Assays were performed in technical triplicate in each independent experiment. […] Concentration response curves were fitted with nonlinear regression using the formula with a variable slope (four parameters) or the formula with a standard slope (three parameters) of GraphPad Prism 10.4.1 (GraphPad Software, Boston, MA, USA), as indicated in the respective figure legends.
ERα mammalian one-hybrid assays were executed in transiently transfected HEK293 cells, which were treated afterward for 24 h with the indicated concentrations of chemicals. Data are presented as a mean ± SD fold change (n ≥ 3 independent experiments) with respect to the normalized reporter gene activity of cells treated with 0.1% DMSO only.

[1] = HEK293, 24 h treatment, four-parameter fit, n ≥ 3, read-out: EC50 mean (activating ERα)

C[C@]12CCC(=O)C[C@@H]1CC[C@H]1[C@@H]3CC[C@H](O)[C@@]3(C)CC(=O)[C@@H]12 [11-ketoDHT, 11-Ketodihydrotestosterone, reference compound]
EC50 (human AR; agonist mode, HEK293, 24 h, n = 4, 95% CI 2.3–4.7 nM, read-out: EC50 (induction of AR N–C interaction)): 3.3 nM

C[C@H]1CCCC(=O)CCC/C=C/c2cc(O)cc(O)c2C(=O)O1 [Zearalenone]
EC50 (human ERα (ESR1)): 4.9 nM | E max [FC] (human ERα (ESR1)): 89.9 FC | potency fold higher than BPA (ERα activation) (human ERα (ESR1); ratio of EC50 values, vs BPA): 120 fold | potency fold higher than BPF (ERα activation) (human ERα (ESR1); ratio of EC50 values, vs BPF): 430 fold | potency fold higher than BPS (ERα activation) (human ERα (ESR1); ratio of EC50 values, vs BPS): 1060 fold | IC50 (human AR): 3700 nM | % residual agonist activity (human AR): 1.5%

O=S(=O)(c1ccc(O)cc1)c1ccc(O)cc1 [Bisphenol S]
EC50 (human ERα (ESR1); [1]): 5200 nM | E max [FC] (human ERα (ESR1)): 48.5 FC

CC(C)(c1ccc(O)cc1)c1ccc(O)cc1 [Bisphenol A]
E max [FC] (human ERα (ESR1)): 19.6 FC | % residual agonist activity (human AR): 3.1% | IC50 (human AR; read-out: IC50 mean (inhibiting AR)): 980 nM

Oc1ccc(Cc2ccc(O)cc2)cc1 [Bisphenol F]
EC50 (human ERα (ESR1); [1]): 2100 nM | E max [FC] (human ERα (ESR1)): 56.1 FC
